# What was measured:
# Type in all cases: biochemical
# [1] = biological target: T1, Hordeum HPPD variant L353M, P321R, V212I, L334E (Hordeum vulgare, UniProt O48604, L334E/L353M/P321R/V212I); test: HPPD activity assay, Hordeum HPPD mutant L353M, P321R, V212I, L334E; conditions: normalized on Hordeum wild-type HPPD
# T1 construct: His (N); made in house; host or cells: E. coli BL21 (DE3)
# Protocol: (§1) HPPD produces homogentisic acid and CO2 from 4-hydroxyphenylpyruvate (4-HPP) and O2. The activity assay for HPPD is based on the analysis of homogentisic acid by reversed phase HPLC.
# (§2) The assay mixture can contain 150 mM potassium phosphate buffer pH 7.0, 50 mM L-ascorbic acid, 1 μM FeSO4 and 7 μg of purified enzyme in a total volume of 1 ml.
# (§3) Inhibitors are dissolved in DMSO (dimethylsulfoxide) to a concentration of 20 mM or 0.5 mM, respectively. From this stock solution serial five-fold dilutions are prepared in DMSO, which are used in the assay. The respective inhibitor solution accounts for 1% of the assay volume. […] After a preincubation of 30 min the reaction is started by adding 4-HPP to a final concentration of 0.1 mM. The reaction is allowed to proceed for 120 min at room temperature. The reaction is stopped by addition of 100 μl of 4.5 M phosphoric acid.
# (§4) Activities are normalized by setting the uninhibited enzyme activity to 100%. IC50 values are calculated using non-linear regression.
# (§5) The assay mixture can contain 150 mM potassium phosphate buffer pH 7.0, 50 mM L-ascorbic acid, 100 μM Catalase (Sigma-Aldrich), 1 μM FeSO4 and 0.2 units of purified HPPD enzyme in a total volume of 505 μl. 1 unit is defined as the amount of enzyme that is required to produce 1 nmol of HGA per minute at 20° C.
# (§6) Inhibitors are dissolved in DMSO (dimethylsulfoxide) to a concentration of 0.5 mM. From this stock solution serial five-fold dilutions are prepared in DMSO, which are used in the assay. The respective inhibitor solution accounts for 1% of the assay volume. […] Activities are normalized by setting the uninhibited enzyme activity to 100%. IC50 values are calculated using non-linear regression.
# (§7) Purified, mutant HPPD enzymes are obtained by the methods described above. Dose response and kinetic measurements are carried out using the described HPPD activity assay. Apparent michaelis constants (Km) and maximal reaction velocities (Vmax) are calculated by non-linear regression with the software GraphPad Prism 5 (GraphPad Software, La Jolla, USA) using a substrate inhibition model.
# (§8) Field performance of the optimized HPPD enzyme, which is used as a herbicide tolerance trait may depend not only on its lack of sensitivity towards HPPD inhibiting herbicides but also on its activity. To assess the potential performance of a herbicide tolerance trait a tolerance index (TI) is calculated using the following formula: […]
# (§9) Easy comparison and ranking of each trait is enabled by normalizing tolerance indexes on Arabidopsis or Hordeum wild-type HPPD.
# [2] = biological target: T2, Arabidopsis HPPD variant M335H, P336A, E363Q (Arabidopsis thaliana, UniProt P93836, E363Q/M335H/P336A); test: HPPD activity assay, Arabidopsis HPPD mutant M335H, P336A, E363Q; conditions: normalized on Arabidopsis wild-type HPPD
# T2 construct: PCR-based site directed mutagenesis of pEXP5-NT/TOPO®-AtHPPD is done; His6 (N); made in house; host or cells: E. coli BL21 (DE3)
# T2 sequence (P93836 whole entry M335H/P336A/E363Q): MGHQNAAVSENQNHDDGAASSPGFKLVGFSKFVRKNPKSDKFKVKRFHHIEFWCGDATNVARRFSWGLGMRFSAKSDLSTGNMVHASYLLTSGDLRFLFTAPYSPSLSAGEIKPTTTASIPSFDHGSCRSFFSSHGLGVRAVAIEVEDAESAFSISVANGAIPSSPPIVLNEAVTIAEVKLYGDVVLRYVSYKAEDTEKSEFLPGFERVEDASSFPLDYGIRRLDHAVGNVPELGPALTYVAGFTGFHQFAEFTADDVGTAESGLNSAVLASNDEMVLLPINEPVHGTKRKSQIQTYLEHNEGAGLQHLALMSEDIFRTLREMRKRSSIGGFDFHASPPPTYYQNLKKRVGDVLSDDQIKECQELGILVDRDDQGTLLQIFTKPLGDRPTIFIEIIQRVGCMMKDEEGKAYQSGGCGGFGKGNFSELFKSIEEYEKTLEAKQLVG
# Protocol: as §1, §2, §3, §4, §5
# Inhibitors are dissolved in DMSO (dimethylsulfoxide) to a concentration of 0.5 mM. […] IC50 values are calculated using non-linear regression. […]
# Purified, mutant HPPD enzymes are obtained by the methods described above. […] Apparent michaelis constants (Km) and maximal reaction velocities (Vmax) are calculated by non-linear regression with the software GraphPad Prism 5 (GraphPad Software, La Jolla, USA) using a substrate inhibition model.
# as §8
# [3] = biological target: T3, Hordeum HPPD variant L320N (Hordeum vulgare, UniProt O48604, A164G/L320N/R146V/R147D/R148G); test: HPPD activity assay, Hordeum HPPD mutant L320N; conditions: normalized on Hordeum wild-type HPPD
# T3 construct: His (N); made in house; host or cells: E. coli BL21 (DE3)
# T3 sequence (O48604 whole entry R146V/R147D/R148G/A164G/L320N): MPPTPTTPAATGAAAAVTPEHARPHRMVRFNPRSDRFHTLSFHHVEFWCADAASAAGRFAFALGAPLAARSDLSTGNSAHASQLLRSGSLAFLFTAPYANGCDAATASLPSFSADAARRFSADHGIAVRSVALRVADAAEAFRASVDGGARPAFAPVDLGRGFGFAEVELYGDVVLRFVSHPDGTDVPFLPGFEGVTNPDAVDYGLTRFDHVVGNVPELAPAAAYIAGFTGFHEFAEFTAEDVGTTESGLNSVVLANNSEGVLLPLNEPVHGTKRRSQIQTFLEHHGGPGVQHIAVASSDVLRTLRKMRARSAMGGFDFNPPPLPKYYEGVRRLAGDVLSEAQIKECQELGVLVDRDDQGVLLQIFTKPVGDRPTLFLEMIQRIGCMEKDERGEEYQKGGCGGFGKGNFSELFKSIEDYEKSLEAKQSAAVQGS
# Protocol: as §1, §2, §3, §4, §5, §6, §7, §8, §9
# [4] = biological target: T4, Hordeum HPPD variant L353M, P321R, L320N (Hordeum vulgare, UniProt O48604, L320N/L353M/P321R); test: HPPD activity assay, Hordeum HPPD mutant L353M, P321R, L320N; conditions: normalized on Hordeum wild-type HPPD
# T4 construct: His (N); made in house; host or cells: E. coli BL21 (DE3)
# T4 sequence (O48604 whole entry R146V/R147D/R148G/A164G/L320N/P321R/L353M): as the sequence (O48604 whole entry R146V/R147D/R148G/A164G/L320N) above, with P321R, L353M counted along it
# Protocol: as §1, §2, §3, §4, §5, §6, §7, §8, §9
# [5] = biological target: T5, Hordeum HPPD variant L320Q (Hordeum vulgare, UniProt O48604, A164G/L320Q/R146V/R147D/R148G); test: HPPD activity assay, Hordeum HPPD mutant L320Q; conditions: normalized on Hordeum wild-type HPPD
# T5 construct: His (N); made in house; host or cells: E. coli BL21 (DE3)
# T5 sequence (O48604 whole entry R146V/R147D/R148G/A164G/L320Q): as the sequence (O48604 whole entry R146V/R147D/R148G/A164G/L320N) above, with N320Q counted along it
# Protocol: as §1, §2, §3, §4, §5, §6, §7, §8, §9
# [6] = biological target: T6, Arabidopsis HPPD (SEQ ID: 53) (Arabidopsis thaliana, UniProt P93836); test: HPPD activity assay, Arabidopsis wild-type HPPD; set-up: key to Normalized tolerance index TI: tolerance index relative to Arabidopsis wild-type HPPD (= 1); conditions: Arabidopsis HPPD Wildtype; normalized on Arabidopsis wild-type HPPD; Table 15
# T6 construct: His6 (N); made in house; host or cells: E. coli BL21 (DE3)
# T6 sequence (P93836 1-445): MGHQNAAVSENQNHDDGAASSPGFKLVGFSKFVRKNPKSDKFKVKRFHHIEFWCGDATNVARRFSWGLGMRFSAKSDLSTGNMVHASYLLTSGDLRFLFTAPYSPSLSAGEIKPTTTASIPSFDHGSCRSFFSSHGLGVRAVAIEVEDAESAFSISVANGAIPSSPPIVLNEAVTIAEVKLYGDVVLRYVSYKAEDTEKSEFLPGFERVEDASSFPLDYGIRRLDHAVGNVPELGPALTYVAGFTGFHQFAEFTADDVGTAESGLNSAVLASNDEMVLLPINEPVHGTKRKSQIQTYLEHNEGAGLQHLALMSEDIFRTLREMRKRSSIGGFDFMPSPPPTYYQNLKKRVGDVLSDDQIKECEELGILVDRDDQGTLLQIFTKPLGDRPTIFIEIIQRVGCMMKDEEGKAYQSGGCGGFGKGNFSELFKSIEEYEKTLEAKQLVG
# Protocol: as §1, §2, §3, §4, §5, §6
# (§10) Using methods which are described in the above examples or well known in the art, purified, recombinant wildtype HPPD enzymes are characterized with respect to their kinetic properties and sensitivity towards HPPD inhibiting herbicides. Apparent michaelis constants (Km) and maximal reaction velocities (Vmax) are calculated by non-linear regression with the software GraphPad Prism 5 (GraphPad Software, La Jolla, USA) using a substrate inhibition model.
# as §8, with “of the HPPD enzyme,” for “of the optimized HPPD enzyme,”, “herbicide tolerance trait, may depend” for “herbicide tolerance trait may depend”
# Easy comparison and ranking of each trait is enabled by normalizing tolerance indexes on Arabidopsis wild-type HPPD.
# [7] = biological target: T7, Hordeum HPPD variant G407C (Hordeum vulgare, UniProt O48604, A164G/G407C/R146V/R147D/R148G); test: HPPD activity assay, Hordeum HPPD mutant G407C; conditions: normalized on Hordeum wild-type HPPD
# T7 construct: His (N); made in house; host or cells: E. coli BL21 (DE3)
# T7 sequence (O48604 whole entry R146V/R147D/R148G/A164G/G407C): as the sequence (O48604 whole entry R146V/R147D/R148G/A164G/L320N) above, with N320L, G407C counted along it
# Protocol: as §1, §2, §3, §4, §5, §6, §7, §8, §9
# [8] = biological target: T8, Hordeum HPPD variant L334E (Hordeum vulgare, UniProt O48604, A164G/L334E/R146V/R147D/R148G); test: HPPD activity assay, Hordeum HPPD mutant L334E; conditions: normalized on Hordeum wild-type HPPD
# T8 construct: His (N); made in house; host or cells: E. coli BL21 (DE3)
# T8 sequence (O48604 whole entry R146V/R147D/R148G/A164G/L334E): as the sequence (O48604 whole entry R146V/R147D/R148G/A164G/L320N) above, with N320L, L334E counted along it
# Protocol: as §1, §2, §3, §4, §5, §6, §7, §8, §9
# [9] = biological target: T9, Hordeum HPPD variant L320H, P321A (Hordeum vulgare, UniProt O48604, L320H/P321A); test: HPPD activity assay, Hordeum HPPD mutant L320H, P321A; conditions: normalized on Hordeum wild-type HPPD
# T9 construct: His (N); made in house; host or cells: E. coli BL21 (DE3)
# T9 sequence (O48604 whole entry R146V/R147D/R148G/A164G/L320H/P321A): as the sequence (O48604 whole entry R146V/R147D/R148G/A164G/L320N) above, with N320H, P321A counted along it
# Protocol: as §1, §2, §3, §4, §5, §6, §7, §8, §9
# [10] = biological target: T10, Hordeum HPPD (SEQ ID: 2) (Hordeum vulgare, UniProt O48604, A164G/R146V/R147D/R148G); test: HPPD activity assay, Hordeum wild-type HPPD; conditions: Hordeum HPPD Wildtype; normalized on Hordeum wild-type HPPD
# T10 construct: His (N); made in house; host or cells: E. coli BL21 (DE3)
# T10 sequence (O48604 whole entry R146V/R147D/R148G/A164G): as the sequence (O48604 whole entry R146V/R147D/R148G/A164G/L320N) above, with N320L counted along it
# Protocol: as §1, §2, §3, §4, §5, §6, §10
# as §8, with “of the HPPD enzyme,” for “of the optimized HPPD enzyme,”, “herbicide tolerance trait, may depend” for “herbicide tolerance trait may depend”
# [11] = biological target: T11, Hordeum HPPD variant V212L (Hordeum vulgare, UniProt O48604, A164G/R146V/R147D/R148G/V212L); test: HPPD activity assay, Hordeum HPPD mutant V212L; conditions: normalized on Hordeum wild-type HPPD
# T11 construct: His (N); made in house; host or cells: E. coli BL21 (DE3)
# T11 sequence (O48604 whole entry R146V/R147D/R148G/A164G/V212L): as the sequence (O48604 whole entry R146V/R147D/R148G/A164G/L320N) above, with V212L, N320L counted along it
# Protocol: as §1, §2, §3, §4, §5, §6, §7, §8, §9
# [12] = biological target: T12, Hordeum HPPD variant L353M, P321R, V212I (Hordeum vulgare, UniProt O48604, L353M/P321R/V212I); test: HPPD activity assay, Hordeum HPPD mutant L353M, P321R, V212I; conditions: normalized on Hordeum wild-type HPPD
# T12 construct: His (N); made in house; host or cells: E. coli BL21 (DE3)
# T12 sequence (O48604 whole entry R146V/R147D/R148G/A164G/V212I/P321R/L353M): as the sequence (O48604 whole entry R146V/R147D/R148G/A164G/L320N) above, with V212I, N320L, P321R, L353M counted along it
# Protocol: as §1, §2, §3, §4, §5, §6, §7, §8, §9
# T1 sequence (O48604 whole entry R146V/R147D/R148G/A164G/V212I/P321R/L334E/L353M): as the sequence (O48604 whole entry R146V/R147D/R148G/A164G/L320N) above, with V212I, N320L, P321R, L334E, L353M counted along it
structure (smiles),measurement,setting,value
"CC1(C)c2cccnc2C(O)=C(c2ccc(Br)cc2C(F)(F)F)S1(=O)=O [Inhibitor 5, 7-[4-bromo-2-(trifluoromethyl)phenyl]-5,5-dimethyl-6,6-dioxo-thiopyrano[4,3-b]pyridin-8-ol]",Normalized tolerance index TI,[1],3.4
same,Normalized tolerance index TI,[2],0.2
same,Normalized tolerance index TI,[3],2.4
same,Normalized tolerance index TI,[4],3.2
same,Normalized tolerance index TI,[5],2.9
same,Normalized tolerance index TI,[6],1
same,Normalized tolerance index TI,[7],4.3
same,Normalized tolerance index TI,[8],2.1
same,Normalized tolerance index TI,[9],6.6
same,Normalized tolerance index TI,[10],1
same,Normalized tolerance index TI,[11],1.1
same,Normalized tolerance index TI,[12],3.3
